In US12636249B2, “Concentrated injectable tranexamic acid compositions and methods of use thereof” (Galen Limited, priority 2022, dated 2026):
Like-named read-outs stand apart in the source and are kept apart here.

Assays:
fibrinolysis = settings: in vitro and in vivo pharmacodynamics studies (Picetti et al., 2019); cited from earlier work
[1] = Pharmacokinetics of TXA in swine plasma after IV and IM administration; format: in vivo, domestic pigs; settings: for Cmax: read-out: Cmax range; for duration of effective plasma concentration (FIG. 13): effective level about 10 to about 15 ug/ml; for time effective TXA levels are maintained (FIG. 13 legend): target about 15 ug/mL
Protocol: Studies of pharmacokinetics (PK) and pharmacodynamics (PD) of TXA were performed in swine conducted in compliance with Good Laboratory Practice (GLP) standards. All facilities and activities were accredited in accordance with GLP and ISO9001 (2015).
Eighteen domestic pigs were assigned to four test groups. Group 1: Control, IM administered with vehicle (0.9% NaCl, pH 3-4, w/v), two animals were administered 2 mL vehicle, one animal administered 4 mL vehicle.
IM injections were performed using an auto-injector. […] PK analysis was noncompartmental. Following sacrifice, animals were subjected to a full detailed necropsy and histopathological evaluation performed on injection sites and major organs.
Additional blood samples were collected for Complete Blood Count (CBC), biochemistry profile and prothrombin time/partial thromboplastin time (PT/PTT) at baseline, 1, 3, and 72 hr post dosing. For thromboelastographic (TEG) analysis blood was collected at base line, 1, 3 and 6 hr post dosing. The study was conducted over 5 separate dosing sessions. For each session the animals were acclimatized for at least 4 days prior to Central Venous Catheter (CVCs) placement procedure. All animals were sacrificed 72 hours post treatment and were subjected to a full gross necropsy. Organ samples and injection sites were collected for histopathological analysis.
Pharmacokinetic and bioanalytical analysis of Tranexamic acid, based on plasma samples, was performed. On the date of analysis, plasma samples were thawed at room temperature, along with calibration and QC samples. 50 μL of plasma were taken for analysis. Tranexamic acid and its internal standard were separated from pig plasma by protein precipitation. The samples were analyzed by a validated high-performance liquid chromatography-mass spectrometry/mass spectrometry (HPLC-MS/MS) method, using Hilic Silica 3 μm column with an electro-spray interface, in a positive ion mode.

[2] = bleeding trauma patients, cited from earlier work
[3] = cited from earlier work
[4] = adult patients with traumatic cardiac arrest, prehospital administration; cited from earlier work

NC[C@H]1CC[C@H](C(=O)O)CC1 [TXA, trans-4-(aminomethyl) cyclohexanecarboxylic acid]
TXA concentration in blood or plasma giving substantial inhibition of fibrinolysis (fibrinolysis): 10 to 15 µg/mL
AUC(0-inf) ([1]; pig, plasma, im, 1 g, swine Group 3: 1 g TXA IM, n=5, read-out: AUCINF_pred range): 81500 to 90300 ng·h/mL
Tmax ([1]; pig, plasma, im, 1 g, swine Group 3: 1 g TXA IM, n=5, read-out: Tmax range): 15 to 120 min
AUC(0-inf) ([1]; pig, plasma, im, 1 g, swine Group 3: 1 g TXA IM, n=5, read-out: mean AUCINF_pred (converted)): 84800 ng·h/mL
Tmax ([1]; pig, plasma, im, 1 g, swine Group 3: 1 g TXA IM, read-out: mean Tmax (converted)): 44 min
Cmax ([1]; pig, plasma, im, 1 g): 20100 to 34800 ng/mL
AUC(0-inf) ([1]; pig, plasma, im, 2 g, swine Group 4: 2 g TXA IM, n=5, read-out: AUCINF_pred range): 134000 to 148000 ng·h/mL
Tmax ([1]; pig, plasma, im, 2 g, swine Group 4: 2 g TXA IM, n=5, read-out: Tmax range): 30 to 60 min
AUC(0-inf) ([1]; pig, plasma, im, 2 g, swine Group 4: 2 g TXA IM, n=5, read-out: mean AUCINF_pred (converted)): 141000 ng·h/mL
Tmax ([1]; pig, plasma, im, 2 g, swine Group 4: 2 g TXA IM, read-out: mean Tmax (converted)): 41.8 min
Cmax ([1]; pig, plasma, im, 2 g): 35700 to 47000 ng/mL
bioavailability ([1]; pig, plasma, intramuscular, 1 g): > 100%
Tmax ([1]; pig, plasma, iv, 1 g, swine Group 2: 1 g TXA IV, n=5, read-out: Tmax range): 11 to 12 min
AUC(0-inf) ([1]; pig, plasma, iv, 1 g, swine Group 2: 1 g TXA IV, n=5, read-out: mean AUCINF_pred (converted)): 74000 ng·h/mL
Tmax ([1]; pig, plasma, iv, 1 g, swine Group 2: 1 g TXA IV, read-out: mean Tmax (converted)): 11.2 min
Cmax ([1]; pig, plasma, iv, 1 g): 40900 to 78500 ng/mL
mean peak plasma concentration (mean concentration-time curve, FIG. 9) ([1]; swine Group 2, n=5: 1 g TXA IV, 10 mL of 100 mg/mL TRANEX injection pH 6.5-8 over 10 min): 64 µg/mL
time of mean peak plasma concentration ([1]; swine Group 2: 1 g TXA IV, time from end of 10 min IV injection): 1 min
mean peak plasma concentration (mean concentration-time curve, FIG. 9) ([1]; swine Group 3, n=5: 1 g TXA IM, 2 mL of 500 mg/mL formulation A pH 3-4): 24.2 µg/mL
time of mean peak plasma concentration ([1]; swine Group 3: 1 g TXA IM, post dosing): ≤ 20 min
mean peak plasma concentration (mean concentration-time curve, FIG. 9) ([1]; swine Group 4, n=5: 2 g TXA IM, 4 mL of 500 mg/mL formulation A pH 3-4): 41 µg/mL
time of mean peak plasma concentration ([1]; swine Group 4: 2 g TXA IM, post dosing): ≤ 45 min
duration of effective plasma concentration (FIG. 13) ([1]; swine, 1 g IM TXA): about 130 minutes
duration of effective plasma concentration (FIG. 13) ([1]; swine, 1 g IV TXA): about 80 minutes
dose proportionality ([1]; swine, 1 g versus 2 g IM): exhibits dose proportionality
duration of effective plasma concentration (FIG. 13) ([1]; swine, 2 g IM TXA): about 200 minutes
time effective TXA levels are maintained (FIG. 13 legend) ([1]; swine, IM administration): > 130 min
time effective TXA levels are maintained (FIG. 13 legend) ([1]; swine, IV administration): < 105 min
bioavailability of IM TXA ([2]; 1 gram IM as two 5 ml (0.5 g each) injections): 77%
tolerability of IM injections ([2]; 1 gram IM as two 5 ml injections): well-tolerated
time to therapeutic plasma concentrations ([2]; after IM injection of 1 gram): ≤ 15 min

OCc1ccccc1 [benzyl alcohol]
cutaneous anesthesia ([3]; intradermal 1 ml 0.9% benzyl alcohol with epinephrine): prolonged cutaneous anesthesia
pain on injection ([3]; versus lidocaine with epinephrine): significantly less painful on injection

CNC[C@H](O)c1ccc(O)c(O)c1 [epinephrine]
short-term survival [4]: increased short-term survival
